Source: patent US9296775B2, “Pyrazole compounds” (Eli Lilly and Company, priority 2012, dated 2016)

Key:
[1] = tested on: male Sprague Dawley rats with STZ-induced diabetes; test: Mixed meal tolerance test in male rats with streptozotocin induced diabetes; assay type: in vivo, rat; conditions: for Glucose Values 0 min. / Glucose Values 20 min. / Glucose Values 40 min. / Glucose Values 60 min. / Glucose Values 120 min. / Baseline Adjusted AUC: mean ± SE; for Baseline Adjusted AUC: glucose AUC in MTT
Description: Rats which have been administered streptozotocin (STZ) develop diabetes mellitus. Agents which modulate glucose levels in these animals are believed to be useful in the treatment of diabetes in humans.
The test compound is formulated by adding a vehicle of 1% hydroxyethylcellulose (HEC), 0.25% Tween® 80 w/ antifoam 0.05% to preweighed test compound to make a 2.5 mg/ml solution. The mixture is probe sonicated for approximately 30 seconds. The resulting solution is used as a stock solution, from which the lower concentration dose solutions are prepared by dilution with the vehicle. STZ, 45 mg/kg, is formulated by dissolving in 0.1M Citrate buffer in 3 ml aliquots and stored in the dark on ice, when not being administered. A high fat content mixed meal (Bio-Serv® Rodent Diet F3282 High Fat) comprising Fat Calories (60%), Carbohydrate Calories (26%) and Protein Calories (15%) is utilized. Single housed Sprague Dawley rats are allowed to acclimate for a period of 3 to 7 days.
In an effort to ensure that the animals have not recently fed, STZ is administered in the afternoon, approximately six hours into the light cycle (lights on 6 am, lights off 6 pm). The animals are anesthetized with isoflurane and STZ is delivered via tail vein injection. Once animals regain consciousness, they are returned to housing and allowed to recover for 7 days.
On the two days immediately prior to the meal tolerance test (MTT) all rats are given a small amount (2-4 g) of the F3282 diet, so they became acclimated to it prior to receiving it during the experiment. On the evening before the experiment, the rats are moved into clean cages and their food is removed. The following morning animals are weighed and a blood sample is taken by tail snip for glucose measurement (Abbott AlphaTrak glucometers: code 29). Animals are grouped n=6 based on fasted body weight and glucose. Thirty minutes after the test compound is orally administered, two glucose measurements are collected. Then a five gram pellet of Bio-Serv® diet 3282 is given. After 20 minutes remaining food is taken away and weighed. Blood samples are taken at 20, 40, 60 and 120 minutes for glucose measurement.

[2] = tested on: normal glycemic C57Bl/6 mouse; test: Oral glucose tolerance test (OGTT); assay type: in vivo; conditions: for Glucose 0 Minute: 3 h before dextrose 3 g/kg; for Glucose 0 Minute / Glucose 20 Minute / Glucose 40 Minute / Glucose 60 Minute / Glucose 120 Minute / Baseline Adjusted AUC: mean ± SE; for Glucose 20 Minute: 20 min after dextrose; for Glucose 40 Minute: 40 min after dextrose; for Glucose 60 Minute: 60 min after dextrose; for Glucose 120 Minute: 120 min after dextrose; for Baseline Adjusted AUC: glucose AUC during OGTT
Description: The test compound is formulated by adding a vehicle of 1% hydroxyethylcellulose, 0.25% Tween® 80 w/ antifoam 0.05% to preweighed test compound to make a 1 mg/ml solution. The mixture is probe sonicated for approximately 30 seconds. The resulting solution is used as a stock solution from which the lower concentration dose solutions are prepared by dilution with the vehicle.
Single housed C57Bl/6 mice are fasted overnight by removing access to food the late afternoon before test day. The following morning, the mice are weighed and a single fasting blood sample is taken by tail snip to measure glucose by glucometer (Roche AccuChek). Study groups (n=5) are determined based on fasted blood glucose and comprise preferably animals in the range of 80-100 mg/dl glucose.
After grouping, the first mouse is orally gavaged with 10 ml/kg test compound preparation and a timer started. Each subsequent animal is dosed a minute and a half apart. Three hours after the first compound treatment is started, a baseline blood sample is taken for measuring glucose (from the first animal, via tail snip). The animal is then immediately given an oral dose of 50% dextrose (Hospira) at 3 g/kg. Blood samples are taken for glucose, exactly a minute and half apart, by tail vein so that blood is collected in each animal at 20, 40, 60 and 120 minutes after the dextrose dose.

[3] = result in words, Example 1 10 and 30 mg/kg, Acarbose 60 mg/kg

## C[C@H]1O[C@H](O[C@H]2[C@H](O)[C@@H](O)[C@@H](O[C@H]3[C@H](O)[C@@H](O)C(O)O[C@@H]3CO)O[C@@H]2CO)[C@H](O)[C@@H](O)[C@@H]1N[C@H]1C=C(CO)[C@@H](O)[C@H](O)[C@H]1O (stereo partly shown) [Acarbose, reference compound]
[1]; 60 mg/kg oral
  Glucose Values 0 min.: 124 ± 16.9 mg/dL
  Glucose Values 20 min.: 181 ± 22.8 mg/dL
  Glucose Values 40 min.: 301.3 ± 51.2 mg/dL
  Glucose Values 60 min.: 371.5 ± 63.9 mg/dL
  Glucose Values 120 min.: 433.7 ± 83 mg/dL
  Baseline Adjusted AUC: 23877 ± 4649
[1]; [3]
  glucose baseline adjusted AUCs in the MTT: significantly decreases
  glucose in the MTT compared to the vehicle controls: did not significantly decrease

## Cc1cc(/C=C/CCN2CCCC3(CCNCC3)C2)ccc1Cc1c(O[C@@H]2O[C@H](CO)[C@@H](O)[C@H](O)[C@H]2O)n[nH]c1C(C)C [Example 1, 4-{4-[(1E)-4-(2,9-diazaspiro[5.5]undec-2-yl)but-1-en-1-yl]-2-methylbenzyl}-5-(propan-2-yl)-1H-pyrazol-3-yl beta-D-glucopyranoside]
[1]; 10 mg/kg oral
  Glucose Values 0 min.: 139 ± 16.1 mg/dL
  Glucose Values 20 min.: 221.2 ± 26.3 mg/dL
  Glucose Values 40 min.: 268.7 ± 29 mg/dL
  Glucose Values 60 min.: 330 ± 36.7 mg/dL
  Glucose Values 120 min.: 490.8 ± 39.2 mg/dL
  Baseline Adjusted AUC: 22432 ± 2234
[1]; 30 mg/kg oral
  Glucose Values 0 min.: 137.4 ± 26.9 mg/dL
  Glucose Values 20 min.: 195.4 ± 44.8 mg/dL
  Glucose Values 40 min.: 232 ± 52.2 mg/dL
  Glucose Values 60 min.: 263.9 ± 62.2 mg/dL
  Glucose Values 120 min.: 355.3 ± 73.2 mg/dL
  Baseline Adjusted AUC: 14649 ± 3673
[2]; 0.3 mg/kg oral
  Glucose 0 Minute: 78 ± 4.2 mg/dL
  Glucose 20 Minute: 185 ± 13.7 mg/dL
  Glucose 40 Minute: 197 ± 14.7 mg/dL
  Glucose 60 Minute: 164 ± 6.3 mg/dL
  Glucose 120 Minute: 121 ± 11.8 mg/dL
  Baseline Adjusted AUC: 5400 ± 519^
[2]; 1 mg/kg oral
  Glucose 0 Minute: 76 ± 3.3 mg/dL
  Glucose 20 Minute: 147 ± 8.3 mg/dL
  Glucose 40 Minute: 171 ± 11.1 mg/dL
  Glucose 60 Minute: 162 ± 5.8 mg/dL
  Glucose 120 Minute: 109 ± 7.3 mg/dL
  Baseline Adjusted AUC: 4158 ± 374^
[2]; 3 mg/kg oral
  Glucose 0 Minute: 72 ± 2.6 mg/dL
  Glucose 20 Minute: 133 ± 7.1 mg/dL
  Glucose 40 Minute: 150 ± 7.5 mg/dL
  Glucose 60 Minute: 155 ± 7.2 mg/dL
  Glucose 120 Minute: 115 ± 10 mg/dL
  Baseline Adjusted AUC: 3606 ± 421
[2]; 10 mg/kg oral
  Glucose 0 Minute: 78 ± 5.4 mg/dL
  Glucose 20 Minute: 124 ± 1.2 mg/dL
  Glucose 40 Minute: 137 ± 5.4 mg/dL
  Glucose 60 Minute: 138 ± 6.1 mg/dL
  Glucose 120 Minute: 114 ± 4.3 mg/dL
  Baseline Adjusted AUC: 2693 ± 309
[2]; 0.3-10 mg/kg, result in words
  average maximum concentration of plasma glucose (Cmax) during the OGTT: dose dependently decreases
  average time that it takes for glucose to reach maximum concentration (Tmax): increasing
